US12275850B2, “Organic-inorganic hybrid material comprising a metal and lignin, processes for preparing the same and uses thereof” (UPM-KYMMENE CORPORATION, priority 2018, dated 2025)

What was measured:
Assay in all cases: MIC, agar dilution / broth microdilution
Format in all cases: cell-based
Details in all cases: mainly agar dilution; g/l of material; for Copper MIC refers to concentration of copper
Rizoctonia solani = system: Rizoctonia solani
Protocol: (§1) The antimicrobial activity of organic-inorganic hybrid materials of the present invention was evaluated through in vitro test of antimicrobial susceptibility with broth microdilution method and agar dilution method (CLSI protocol—Clinical and Laboratory Standards Institute). […] Agar dilution assay was used: the organic-inorganic hybrid materials were incorporated at different concentrations into the agar medium (specific for each microorganism) and after solidification of the medium, the inoculum (10^4 CFU/ml for the fungi and […] for the bacteria) was applied to the agar surface. Broth microdilution assay: the organic-inorganic hybrid materials were diluted into specific liquid media in the presence of a well-defined microbial suspension (10^4 CFU/ml for the fungi and […] for the bacteria). In the broth microdilution assay, the organic-inorganic hybrid materials were diluted into specific liquid media, but they resulted insoluble with the formation of precipitates on the bottom of the wells, consequently the MIC were mainly determinate with agar dilution assay. Two controls were prepared for the tests: a positive control of activity through use of Miconazole (against fungi) and Ceftriaxone (against bacteria). All the tests have been carried out in triplicate, giving very similar inhibition results. In parenthesis, the concentration (g/l) of copper relative to the corresponding copper-lignin derivative. For copper sulphate pentahydrate (copper) and copper hydroxide (copper 2) the MIC refer to the concentration of copper (g/l): […]

Staphylococcus aureus = system: Staphylococcus aureus
Protocol: as §1

Escherichia coli = system: Escherichia coli
Protocol: as §1

[1] = system: Xanthomonas arboricola pv. pruni
Protocol: as §1

Septoria tritici = system: Septoria tritici
Protocol: as §1

Candida albicans = system: Candida albicans
Protocol: as §1

Campylobacter jejuni = system: Campylobacter jejuni
Protocol: as §1

Erwinia amylovora = system: Erwinia amylovora
Protocol: as §1

[2] = system: Pseudomonas syringae pv. actinidiae
Protocol: as §1

Fusarium solani = system: Fusarium solani
Protocol: as §1

Botritis cinerea = system: Botritis cinerea
Protocol: as §1

Pseudomonas aeruginosa = system: Pseudomonas aeruginosa
Protocol: as §1

Alternaria solani = system: Alternaria solani
Protocol: as §1

Monilia laxa = system: Monilia laxa
Protocol: as §1

Salmonella enteriditis = system: Salmonella enteriditis
Protocol: as §1

Xanthomonas campestris = system: Xanthomonas campestris
Protocol: as §1

Compound: [Cu+2].[OH-].[OH-] [Copper, Copper hydroxide]
- MIC (g/l) R. solani (Rizoctonia solani): 0.32 g/L
- MIC (g/l) S. aureus (Staphylococcus aureus): 0.32 g/L
- MIC (g/l) E. coli (Escherichia coli): 0.32 g/L
- MIC (g/l) X. arboricola [1]: <0.16 g/L
- MIC (g/l) S. tritici (Septoria tritici): 0.65 g/L
- MIC (g/l) C. albicans (Candida albicans): 1.30 g/L
- MIC (g/l) C. jejuni (Campylobacter jejuni): <0.16 g/L
- MIC (g/l) E. amylovora (Erwinia amylovora): 0.65 g/L
- MIC (g/l) P. syringae [2]: 0.32 g/L
- MIC (g/l) F. solani (Fusarium solani): 10.4 g/L
- MIC (g/l) B. cinerea (Botritis cinerea): 5.2 g/L
- MIC (g/l) P. aeruginosa (Pseudomonas aeruginosa): 1.30 g/L
- MIC (g/l) A. solani (Alternaria solani): 5.2 g/L
- MIC (g/l) M. laxa (Monilia laxa): 0.65 g/L
- MIC (g/l) S. enteridis (Salmonella enteriditis): 0.65 g/L
- MIC (g/l) X. campestris (Xanthomonas campestris): 0.32 g/L
